# Experimental data taken from EP3415164A1, “COMPOSITION COMPRISING A SPECIFIC P38A INHIBITOR AND AN AGENT THAT INDUCES CHROMOSOME INSTABILITY AND MEDICAL USES THEREOF” (Fundació Institut de Recerca Biomèdica (IRB Barcelona), priority 2017, dated 2018).
# How the values were obtained:
# [1] = system: PyMT-induced mammary tumours; experiment: Growth, DNA damage and mitotic figures of PyMT-induced mammary tumours in treated mice; format: in vivo; conditions: for effect on tumour growth: taxane administered alone, 20 mg/kg once a week for three weeks
# Method: Mouse experiments. PyMT p38αlox/lox UbCre female mice were generated by crossing p38αlox/lox mice (Ventura et al., 2007) with MMTV-PyMT, provided by William Muller (McGill University, Canada) and UbiquitinC-Cre-ERT2 mice (Ruzankina et al., 2007), being all mostly in FVB background. Mouse genotyping was performed by PCR using genomic tail DNA. Primers and conditions are available upon request. Mice were housed according to national and European Union regulations, and protocols were approved by the animal care and use committee of the Barcelona Science Park (PCB-CEEA). […] For p38α deletion, 4OHT (Sigma, H6278) was dissolved in 10% ethanol/90% corn oil (Sigma, C8267) and mice were injected intraperitoneally with 1 mg each day for five consecutive days. For chemotherapeutic treatments, mice were injected once a week with 20 mg/kg of docetaxel (Accord, 691719.0) or 20 mg/kg paclitaxel (Accord, 676253.0), for three consecutive weeks. […] Histology and immunohistochemistry. Tumours dissected from mice were fixed overnight in 10%-buffered formalin (Sigma, HT501128) and embedded in paraffin. Sections (5 µm-thick) were stained with hematoxylin and eosin (H&E). Specific antibodies were used for the following stainings: Ki67 (Novacastra, NCL), phospho-H3 (Millipore, 06-570), γ-H2AX (Millipore, 05-636). […] Apoptosis was detected by TUNEL using the "In situ Cell Death Detection Kit, Fluorescein" (Roche, 11684795910), following the manufacturer's instructions.
# [2] = system: breast tumour patient-derived xenografts (PDXs); experiment: Breast tumour patient-derived xenografts (PDXs) treated with taxanes and PH797804; format: in vivo
# [3] = combination therapy versus single treatments, around day 15, responding PDXs (TN1, TN2, Lum1, Lum2)
# [4] = PH797804 in combination with paclitaxel or docetaxel
Compound,effect on tumour growth [1],"aneuploidy (FISH, chromosome 17 centromeric probe) ([2]; PH797804 with paclitaxel versus paclitaxel)",detrimental outcome induced by p38α inhibition ([2]; all nine PDXs),"anti-tumour response ([2]; co-administration with paclitaxel or docetaxel versus taxane alone, most cases (seven of nine PDXs))","anti-tumour response ([2]; co-administration with taxane, PDX models TN5 and Lum4)","missegregation events [2, 3]","γ-H2AX staining [2, 3]","effect on tumour growth ([2]; p38α inhibition (PH797804) alone, 15 mg/kg daily oral, most PDX models)",tumour size ([1]; PH797804 15 mg/kg daily by oral gavage in combination with paclitaxel or docetaxel),"DNA damage (γ-H2AX staining) [1, 4]","missegregation events (phospho-H3 staining) [1, 4]"
CC(=O)O[C@H]1C(=O)[C@@]2(C)[C@H]([C@H](OC(=O)c3ccccc3)[C@]3(O)C[C@H](OC(=O)[C@H](O)[C@@H](NC(=O)c4ccccc4)c4ccccc4)C(C)=C1C3(C)C)[C@]1(OC(C)=O)CO[C@@H]1C[C@@H]2O [paclitaxel],only exerted a cytostatic effect on tumour growth,–,–,–,–,–,–,–,–,–,–
CNC(=O)c1ccc(C)c(-n2c(C)cc(OCc3ccc(F)cc3F)c(Br)c2=O)c1 [PH797804],–,usually enhanced the aneuploidy induced by paclitaxel,never observed increased tumour growth or any other detrimental outcome,"enhanced, accelerated or prolonged the anti-tumour response observed with the taxane alone",no additional benefit was observed,increased percentage of missegregation events,increased γ-H2AX staining,mild effect on tumour growth,substantial reduction of tumour size,increased levels of DNA damage,higher number of missegregation events
CC(=O)O[C@@]12CO[C@@H]1C[C@H](O)[C@@]1(C)C(=O)[C@H](O)C3=C(C)[C@@H](OC(=O)[C@H](O)[C@@H](NC(=O)OC(C)(C)C)c4ccccc4)C[C@@](O)([C@@H](OC(=O)c4ccccc4)[C@H]21)C3(C)C [docetaxel],only exerted a cytostatic effect on tumour growth,–,–,–,–,–,–,–,–,–,–
